{"source": "the NIST ThermoML archive (doi:10.1021/je0495942)", "assay": "activity coefficient (dimensionless); of the first substance listed, at infinite dilution; xn = mol fraction of the nth substance listed", "conditions": "101.33 kPa, Liquid, Chromatography, x1 = 0", "note": "Several values for one entry are separate records, joined by “and”; a condition that tells them apart may be missing. Identical values can stand only once. ± gives the expanded uncertainty stated by the source."}
{"smiles": "CC(=O)C(C)=O", "note": "[2,3-butanedione] + O", "values": [{"measurement": "activity coefficient", "setting": "298.1 K", "result": "13.3 and 13.2"}, {"measurement": "activity coefficient", "setting": "298.17 K", "result": "13.2 and 13.1"}]}
{"smiles": "CCCCC(C)=O", "note": "[2-hexanone] + O", "values": [{"measurement": "activity coefficient", "setting": "297.85 K", "result": "319 ± 14"}, {"measurement": "activity coefficient", "setting": "298.15 K", "result": "265 ± 12"}]}
{"smiles": "CSC", "note": "[2-thiapropane] + O", "values": [{"measurement": "activity coefficient", "setting": "298.01 K", "result": "175 and 173 and 171"}, {"measurement": "activity coefficient", "setting": "298.02 K", "result": "184 and 185"}, {"measurement": "activity coefficient", "setting": "298.03 K", "result": "170 and 173"}, {"measurement": "activity coefficient", "setting": "298.07 K", "result": "178 ± 12"}]}
{"smiles": "CC(C)=O", "note": "[acetone] + O", "values": [{"measurement": "activity coefficient", "setting": "298.01 K", "result": "7.62 and 7.68"}, {"measurement": "activity coefficient", "setting": "298.03 K", "result": "7.64 and 7.7"}, {"measurement": "activity coefficient", "setting": "298.04 K", "result": "7.68 and 7.74"}, {"measurement": "activity coefficient", "setting": "298.17 K", "result": "7.7 ± 0.34"}]}
{"smiles": "CCC(C)=O", "note": "[butanone] + O", "values": [{"measurement": "activity coefficient", "setting": "297.85 K", "result": "25.8 ± 1.1"}, {"measurement": "activity coefficient", "setting": "298.15 K", "result": "26.1 ± 1.2"}]}
{"smiles": "CC=O", "note": "[ethanal] + O", "values": [{"measurement": "activity coefficient", "setting": "298.13 K", "result": "4.13 [middle of 4 runs]"}, {"measurement": "activity coefficient", "setting": "298.15 K", "result": "4.14 ± 0.19"}]}
{"smiles": "CCO", "note": "[ethanol] + O", "values": [{"measurement": "activity coefficient", "setting": "298.15 K", "result": "3.77 ± 0.17"}]}
{"smiles": "CCCC(C)=O", "note": "[pentan-2-one] + O", "values": [{"measurement": "activity coefficient", "setting": "297.85 K", "result": "129 ± 6"}, {"measurement": "activity coefficient", "setting": "298.15 K", "result": "148 ± 7"}]}
{"smiles": "CCCO", "note": "[propan-1-ol] + O", "values": [{"measurement": "activity coefficient", "setting": "298.01 K", "result": "13.4 ± 0.6"}, {"measurement": "activity coefficient", "setting": "298.03 K", "result": "13.3 ± 0.6"}, {"measurement": "activity coefficient", "setting": "298.04 K", "result": "13.3 ± 0.6"}, {"measurement": "activity coefficient", "setting": "298.1 K", "result": "13.4 and 13.3"}]}
